BindingDB's records for doi:10.1016/j.ejmech.2010.09.016 (Democritus University of Thrace, 2010)

Target: Seed linoleate 13S-lipoxygenase-1 (Glycine max) (UniProt P08170)
Experiment: Inhibition of soybean lipoxygenase at by UV spectrophotometry

Seed linoleate 13S-lipoxygenase-1 (Glycine max), sequence (P08170 whole entry, looked up): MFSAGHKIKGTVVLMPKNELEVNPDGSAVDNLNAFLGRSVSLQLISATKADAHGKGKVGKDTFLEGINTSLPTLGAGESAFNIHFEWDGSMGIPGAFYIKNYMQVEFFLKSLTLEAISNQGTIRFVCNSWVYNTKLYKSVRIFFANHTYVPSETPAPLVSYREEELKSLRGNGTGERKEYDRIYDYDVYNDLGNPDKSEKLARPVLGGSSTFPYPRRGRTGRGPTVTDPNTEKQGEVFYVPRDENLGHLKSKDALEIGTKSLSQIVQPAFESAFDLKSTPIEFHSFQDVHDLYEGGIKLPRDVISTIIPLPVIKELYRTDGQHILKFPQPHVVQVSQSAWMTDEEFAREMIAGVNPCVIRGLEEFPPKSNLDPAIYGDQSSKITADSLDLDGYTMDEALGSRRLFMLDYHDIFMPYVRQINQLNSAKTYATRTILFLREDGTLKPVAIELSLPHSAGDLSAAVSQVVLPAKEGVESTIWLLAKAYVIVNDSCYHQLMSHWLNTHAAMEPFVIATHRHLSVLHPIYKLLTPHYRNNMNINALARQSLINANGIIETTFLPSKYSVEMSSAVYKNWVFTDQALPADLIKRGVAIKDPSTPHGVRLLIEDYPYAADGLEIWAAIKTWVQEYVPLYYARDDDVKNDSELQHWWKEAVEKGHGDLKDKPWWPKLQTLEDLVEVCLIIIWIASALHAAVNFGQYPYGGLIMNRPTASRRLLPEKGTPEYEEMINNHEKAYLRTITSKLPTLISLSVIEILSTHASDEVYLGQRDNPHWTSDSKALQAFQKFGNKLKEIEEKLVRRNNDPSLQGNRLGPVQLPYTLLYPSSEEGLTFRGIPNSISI

With `Clc1ccc(Cc2noc(NC3CCCCC3)n2)cc1` [3-(4-Chlorobenzyl)-N-cyclohexyl-1,2,4-oxadiazol-5-amine] as the molecule, how does the IC50 read?
The IC50 was 25 µM.

With `CC(C)Nc1nc(Cc2ccc(Cl)cc2)no1` [3-(4-Chlorobenzyl)-N-isopropyl-1,2,4-oxadiazol-5-amine] as the molecule, how does the IC50 read?
The IC50 was 100 µM.

For `CC(C)Nc1nc(C2CCCCC2)no1` [3-Cyclohexyl-N-isopropyl-1,2,4-oxadiazol-5-amine], which IC50 is on record?
Its IC50 is 100 µM.

Which IC50 does the source give for `Cc1ccc(-c2noc(NCCCN(C)C)n2)cc1` [N1,N1-Dimethyl-N3-(3-p-tolyl-1,2,4-oxadiazol-5-yl)propane-1,3-diamine] here?
The IC50 was 25 µM.

With `COc1ccc(C(=N)NO)cc1` [N'-hydroxy-4-methoxybenzimidamide] as the molecule, how does the IC50 read?
The IC50 was 55 µM.

`Cc1ccc(C(=N)NO)cc1` [N'-hydroxy-4-methylbenzimidamide] was tested. Which IC50 did it give?
Its IC50 is 100 µM.

How did the IC50 turn out when `O=[N+]([O-])c1ccc(Cc2noc(NC3CCCCC3)n2)cc1` [N-Cyclohexyl-3-(4-nitrobenzyl)-1,2,4-oxadiazol-5-amine] was run?
Its IC50 is 100 µM.

For `Cc1ccc(-c2noc(NC3CCCCC3)n2)cc1` [N-Cyclohexyl-3-p-tolyl-1,2,4-oxadiazol-5-amine], which IC50 is on record?
Its IC50 is 92 µM.

Which IC50 does the source give for `CC(=O)N(c1nc(-c2ccc([N+](=O)[O-])cc2)no1)C1CCCCC1` [N-Cyclohexyl-N-[3-(4-nitrophenyl)-1,2,4-oxadiazol-5-yl]acetamide] here?
Its IC50 is 50 µM.

`CC(=O)N(c1nc(-c2cccc([N+](=O)[O-])c2)no1)C(C)C` [N-Isopropyl-N-[3-(3-nitrophenyl)-1,2,4-oxadiazol-5-yl]acetamide] was tested. Which IC50 did it give?
The IC50 was 58.5 µM.

`CC(=O)N(c1nc(Cc2ccc(Cl)cc2)no1)C1CCCCC1` [N-[3-(4-Chlorobenzyl)-1,2,4-oxadiazol-5-yl]-N-cyclohexylacetamide] was tested. Which IC50 did it give?
Its IC50 is 100 µM.
